One data set deals with Cytochrome P450 2D6 (Homo sapiens, UniProt P10635). Briefly: Inhibition of CYP2D6 in human liver microsomes incubated in presence NADPH by LC-MS/MS analysis.
Data set [1] in a line: Volume of distribution at steady state in C57BL/6 mouse at 15 mg/kg, po or 2 mg/kg, iv measured for 24 hrs by LC/MS/MS analysis. It counts as ADME, organism-based. The conditions noted are these: in vivo.
In a further data set the target is T1, Cytochrome P450 2B6 (Homo sapiens, UniProt P20813).
T1 sequence (P20813 whole entry): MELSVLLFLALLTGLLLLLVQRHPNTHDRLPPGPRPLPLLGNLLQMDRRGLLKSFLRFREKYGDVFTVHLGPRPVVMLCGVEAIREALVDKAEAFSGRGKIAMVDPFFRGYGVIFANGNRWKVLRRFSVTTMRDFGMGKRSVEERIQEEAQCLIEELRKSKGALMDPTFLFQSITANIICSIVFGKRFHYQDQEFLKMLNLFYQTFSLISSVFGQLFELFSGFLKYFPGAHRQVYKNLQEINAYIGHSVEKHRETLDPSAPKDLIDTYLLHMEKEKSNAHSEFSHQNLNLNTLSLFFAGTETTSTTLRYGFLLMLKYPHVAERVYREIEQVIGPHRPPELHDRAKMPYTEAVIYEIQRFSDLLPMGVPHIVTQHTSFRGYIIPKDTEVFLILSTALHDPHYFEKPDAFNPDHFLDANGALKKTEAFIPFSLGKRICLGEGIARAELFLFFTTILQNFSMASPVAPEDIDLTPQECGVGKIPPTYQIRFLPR
The experiment in a line: Inhibition of CYP2B6 in human liver microsomes incubated in presence NADPH by LC-MS/MS analysis. A general note: Liver microsomes are a subcellular fraction often used to study metabolism.

Data set [2] in a line: Plasma protein binding in mouse assessed as unbound fraction at 2 uM incubated for 4 hrs by LC/MS/MS based balanced dialysis method.
A further data set deals with Cytochrome P450 2C9 (Homo sapiens, UniProt P11712). Briefly: Inhibition of CYP2C9 in human liver microsomes incubated in presence NADPH by LC-MS/MS analysis.
Data set [3] in a line: Microsomal stability in mouse liver microsomes assessed as intrinsic clearance at 1 uM incubated for 60 mins in presence of NADPH regenerating system by LC-MS/MS analysis. It is filed as ADME, Microsome. The settings on record: read-out: CLH.
For data set [4], the species on record is Homo sapiens. Briefly: Selectivity index, ratio of IC50 for inhibition of recombinant human TYK2 to IC50 for inhibition of recombinant human JAK1.
Data set [5] addresses Tyrosine-protein kinase JAK2 (Homo sapiens, UniProt O60674). Briefly: Inhibition of recombinant human JAK2 using KTFCGTPEYLAPEVRREPRILSEEEQEMFRDFDYIADWC as substrate incubated for 40 mins in presence of Mg/ATP mixture by [gamma p33]-ATP based scintillation counting method.
Data set [6] can be described thus: Metabolic stability in human hepatocytes assessed as intrinsic clearance at 1 uM incubated for 90 mins by LC/MS/MS analysis. It is filed as ADME, cell-based, Hepatocyte.
For data set [7], the species on record is Homo sapiens. Briefly: Selectivity index, ratio of IC50 for inhibition of recombinant human JAK2 to IC50 for inhibition of recombinant human JAK1.
A further data set concerns the target T2, Cytochrome P450 1A2 (Homo sapiens, UniProt P05177).
T2 sequence (P05177 whole entry): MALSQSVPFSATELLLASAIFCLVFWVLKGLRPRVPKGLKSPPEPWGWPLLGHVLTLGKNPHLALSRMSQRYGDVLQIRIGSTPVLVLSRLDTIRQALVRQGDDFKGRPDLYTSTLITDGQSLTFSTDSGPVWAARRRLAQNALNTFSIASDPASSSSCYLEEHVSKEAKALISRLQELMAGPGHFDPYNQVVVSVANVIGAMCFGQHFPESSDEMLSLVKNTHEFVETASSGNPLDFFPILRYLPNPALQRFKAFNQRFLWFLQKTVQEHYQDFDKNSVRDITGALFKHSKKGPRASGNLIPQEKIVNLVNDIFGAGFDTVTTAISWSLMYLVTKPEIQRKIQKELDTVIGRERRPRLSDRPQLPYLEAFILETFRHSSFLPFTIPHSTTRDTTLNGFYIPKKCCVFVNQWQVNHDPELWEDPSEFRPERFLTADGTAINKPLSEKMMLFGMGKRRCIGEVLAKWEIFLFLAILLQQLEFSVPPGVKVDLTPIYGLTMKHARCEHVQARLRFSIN
The experiment in a line: Inhibition of CYP1A2 in human liver microsomes incubated in presence NADPH by LC-MS/MS analysis.

The next data set concerns the target Cytochrome P450 3A4 (Homo sapiens, UniProt P08684). The experiment in a line: Inhibition of CYP3A4 in human liver microsomes incubated in presence NADPH by LC-MS/MS analysis.

These results are taken from ChEMBL document CHEMBL5150077, “Identification of TUL01101: A Novel Potent and Selective JAK1 Inhibitor for the Treatment of Rheumatoid Arthritis” (J Med Chem, 2022).

Sequence of Cytochrome P450 2D6 (P10635 whole entry): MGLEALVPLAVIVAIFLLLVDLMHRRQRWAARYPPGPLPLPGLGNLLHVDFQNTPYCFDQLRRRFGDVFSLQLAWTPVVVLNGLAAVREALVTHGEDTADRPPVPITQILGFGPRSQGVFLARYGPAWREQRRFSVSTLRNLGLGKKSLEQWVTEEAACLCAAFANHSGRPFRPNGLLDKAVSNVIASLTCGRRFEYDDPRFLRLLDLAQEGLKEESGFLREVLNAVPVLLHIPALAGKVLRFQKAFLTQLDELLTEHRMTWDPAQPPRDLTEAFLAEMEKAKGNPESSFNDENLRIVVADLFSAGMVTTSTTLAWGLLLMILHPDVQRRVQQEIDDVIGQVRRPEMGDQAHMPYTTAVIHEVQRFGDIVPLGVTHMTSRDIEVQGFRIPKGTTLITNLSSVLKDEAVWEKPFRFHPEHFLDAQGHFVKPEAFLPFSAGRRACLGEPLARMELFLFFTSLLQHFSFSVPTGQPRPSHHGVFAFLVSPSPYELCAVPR
Sequence of Cytochrome P450 2C9 (P11712 whole entry): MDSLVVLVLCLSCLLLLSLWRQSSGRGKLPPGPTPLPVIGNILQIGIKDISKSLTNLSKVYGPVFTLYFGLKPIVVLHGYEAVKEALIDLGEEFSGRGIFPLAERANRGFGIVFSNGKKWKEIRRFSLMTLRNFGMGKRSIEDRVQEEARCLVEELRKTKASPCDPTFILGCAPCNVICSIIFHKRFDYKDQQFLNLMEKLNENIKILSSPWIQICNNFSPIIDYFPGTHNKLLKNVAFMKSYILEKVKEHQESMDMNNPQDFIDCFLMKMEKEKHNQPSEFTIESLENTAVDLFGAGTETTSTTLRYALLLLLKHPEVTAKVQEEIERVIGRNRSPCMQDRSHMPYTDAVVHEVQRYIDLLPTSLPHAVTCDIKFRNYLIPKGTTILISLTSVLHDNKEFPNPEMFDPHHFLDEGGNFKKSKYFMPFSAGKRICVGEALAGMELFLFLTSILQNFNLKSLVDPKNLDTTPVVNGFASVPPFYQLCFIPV
Sequence of Cytochrome P450 3A4 (P08684 whole entry): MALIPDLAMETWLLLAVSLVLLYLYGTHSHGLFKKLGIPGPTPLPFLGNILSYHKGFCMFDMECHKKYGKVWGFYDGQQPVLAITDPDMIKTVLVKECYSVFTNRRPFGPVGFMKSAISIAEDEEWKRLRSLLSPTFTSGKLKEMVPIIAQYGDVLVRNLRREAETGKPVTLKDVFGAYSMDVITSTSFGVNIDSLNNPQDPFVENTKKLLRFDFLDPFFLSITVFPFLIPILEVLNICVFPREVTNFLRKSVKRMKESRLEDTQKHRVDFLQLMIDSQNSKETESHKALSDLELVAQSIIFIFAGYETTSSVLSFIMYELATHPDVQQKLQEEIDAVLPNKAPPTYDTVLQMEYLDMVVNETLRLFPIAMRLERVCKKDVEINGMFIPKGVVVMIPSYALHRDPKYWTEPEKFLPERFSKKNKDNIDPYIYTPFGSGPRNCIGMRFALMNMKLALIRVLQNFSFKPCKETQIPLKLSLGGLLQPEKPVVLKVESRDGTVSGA
Sequence of Tyrosine-protein kinase JAK2 (O60674 whole entry): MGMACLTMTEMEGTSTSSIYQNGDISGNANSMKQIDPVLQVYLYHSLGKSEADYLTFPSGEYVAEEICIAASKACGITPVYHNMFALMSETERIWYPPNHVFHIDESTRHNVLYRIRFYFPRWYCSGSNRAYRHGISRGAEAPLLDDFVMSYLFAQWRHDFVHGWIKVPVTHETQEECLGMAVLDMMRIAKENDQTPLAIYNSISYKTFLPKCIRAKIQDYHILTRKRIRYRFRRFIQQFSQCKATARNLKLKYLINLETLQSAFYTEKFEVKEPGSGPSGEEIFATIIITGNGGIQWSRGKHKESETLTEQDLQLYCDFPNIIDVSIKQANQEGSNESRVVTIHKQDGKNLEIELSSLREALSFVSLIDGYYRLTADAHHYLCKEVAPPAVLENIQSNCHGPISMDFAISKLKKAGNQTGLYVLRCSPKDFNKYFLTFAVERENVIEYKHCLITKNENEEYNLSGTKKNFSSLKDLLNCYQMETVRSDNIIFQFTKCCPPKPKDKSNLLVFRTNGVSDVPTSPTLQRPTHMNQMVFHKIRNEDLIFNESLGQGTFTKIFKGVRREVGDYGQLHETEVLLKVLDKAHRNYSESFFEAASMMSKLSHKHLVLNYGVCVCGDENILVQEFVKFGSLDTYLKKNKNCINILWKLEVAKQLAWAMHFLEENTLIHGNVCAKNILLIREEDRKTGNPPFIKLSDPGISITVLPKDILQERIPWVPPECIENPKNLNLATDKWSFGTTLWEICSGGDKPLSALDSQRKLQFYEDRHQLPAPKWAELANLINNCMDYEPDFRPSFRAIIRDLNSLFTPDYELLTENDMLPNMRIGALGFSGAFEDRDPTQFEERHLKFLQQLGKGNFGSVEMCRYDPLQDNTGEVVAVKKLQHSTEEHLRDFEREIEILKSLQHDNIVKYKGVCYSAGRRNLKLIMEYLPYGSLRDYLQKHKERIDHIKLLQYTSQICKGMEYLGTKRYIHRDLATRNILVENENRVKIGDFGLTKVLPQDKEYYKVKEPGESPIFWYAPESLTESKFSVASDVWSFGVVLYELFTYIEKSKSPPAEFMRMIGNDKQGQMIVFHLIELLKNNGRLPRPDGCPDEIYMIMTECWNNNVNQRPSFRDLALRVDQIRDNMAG

Consider `O=C(Nc1nc2cccc(C3CCC4(CC3)CCN(C(=O)[C@@H]3CC3(F)F)CC4)n2n1)C1CC1`, for which the IC50 at Cytochrome P450 2D6 is over 100 µM; against Cytochrome P450 2B6 it was over 100 µM; at Cytochrome P450 2C9 it was 46.8 µM; in data set [5] it was 0.04 µM; at Cytochrome P450 1A2, over 100 µM; against Cytochrome P450 3A4 it was over 100 µM. In data set [1], this compound had a Vdss of 0.942 L/kg. Moreover, the fraction unbound at 4 h, 2 µM in data set [2] was 0.057. The microsomal CLint at 1 µM in data set [3] worked out at 20.8 µL/min/mg. Further, the figures for the Ratio IC50 in the data set filed under Homo sapiens [4] and in the data set filed under Homo sapiens [7] were 8.7 and 13.3, respectively. The CLH in data set [6] was under 6.4 µL/min/mg.
Consider `O=C(Nc1nc2cccc([C@H]3CC[C@@H](NC(=O)[C@@H]4CC4(F)F)CC3)n2n1)C1CC1`, for which the half-maximal inhibitory concentration (IC50) at Cytochrome P450 2D6 is over 100 µM; at Cytochrome P450 2B6, over 100 µM; at Cytochrome P450 2C9, over 100 µM; in data set [5] it was […]; against Cytochrome P450 1A2, 8.21 µM; against Cytochrome P450 3A4, over 100 µM. Also, in [1], the Vdss was found to be 0.501 L/kg. In addition, the fraction unbound at 4 h, 2 µM in [2] was found to be 0.148. Also, the microsomal CLint at 1 µM in data set [3] turned out to be 24.2 µL/min/mg. The Ratio IC50 in the data set listed under Homo sapiens [4] worked out at […]; in the data set filed under Homo sapiens [7] it was […]. Also, in [6], the CLH was […].
As for `O=C(Nc1nc2cccc(C3CCC4(CC3)CCN(C(=O)[C@@H]3CC3(F)F)C4)n2n1)C1CC1` (some centres undefined), the IC50 is over 100 µM on Cytochrome P450 2D6; over 100 µM on Cytochrome P450 2B6; 49 µM against Cytochrome P450 2C9; 0.324 µM in data set [5]; over 100 µM against Cytochrome P450 1A2; over 100 µM at Cytochrome P450 3A4. Further, in data set [2], the fraction unbound at 4 h, 2 µM turned out to be 0.112. In addition, the microsomal CLint at 1 µM in [3] was 46.5 µL/min/mg. Besides, the Ratio IC50 in the data set listed under Homo sapiens [4] amounted to 2.2; in the data set listed under Homo sapiens [7], 10.5. For the same compound, the CLH in data set [6] was under 6.4 µL/min/mg.
Compound `O=C(Nc1nc2cccc(C3CCC4(CC3)CN(C(=O)[C@@H]3CC3(F)F)C4)n2n1)C1CC1` gave a Vdss in [1] of 1.61 L/kg. Moreover, the fraction unbound at 4 h, 2 µM in data set [2] turned out to be 0.259. Moreover, the microsomal CLint at 1 µM in data set [3] is under 9.6 µL/min/mg. Further, the CLH in data set [6] is under 6.4 µL/min/mg.

As a reminder, the IC50 is the midpoint of a concentration-inhibition curve. By fraction unbound is commonly meant free concentration divided by total concentration.
